According to patent publication US20110021362A1, “AGENTS FOR STIMULATING ACTIVITY OF METHYL MODIFYING ENZYMES AND METHODS OF USE THEREOF” (CONSTELLATION PHARMACEUTICALS, priority 2009, published 2011):

Columns and labels:
[1] = target: rPRC2 (Homo sapiens, UniProt O75530+Q15910); test: rPRC2 methylase stimulation assay (3H-SAM, FLASHplate/TopCount); type: biochemical; conditions: FIG. 5, histone peptides ~1.86 μM, oligonucleosomes 14.95 nM, 45 min at 30° C.
Text: Polycomb repressive complex 2 (PRC2) is a multisubunit methylase complex that includes EZH2 (Enhancer of Zeste Homolog 2), EED, SUZ12, Rbap46, and Rbap48 subunits. Reconstituted PRC2 complexes (MW=600 kDa) were used in vitro assays to determine methylase activity in the presence of novel stimulating agents.
[…] For detection, Streptavidin FlashPlate HTS PLUS were used (High Capacity, 384 well, Perkin Elmer product # SMP410001PK).
A workflow used for high throughput assays was as follows: • 1. Preparation of assay plates using the ECHO® (Labcyte) (240 nl of DMSO or compound per well) • 2. Preparation of Mix I+II; I: 1202×15 μl; II: 1202×15.0 μl (dead volume ˜50 reactions) • Mix I • 6.0 μl 5× HMT buffer • 0.45 μl DTT 0.2M • 1.0 μl rPRC2 • 1.0 μl H3K27me3 peptide • 0.11 μl Bio/Avi-oligonuc. 1:10 • 6.44 μl water • 15.0 μl • Mix II • 1.0 μl ^3H-SAM • 14.0 μl water • 15.0 μl • 3. Adding Mix I to assay plate using the Multidrop (15 μl per well) • 4. Adding Mix II to assay plate using the Multidrop (15 μl per well) • 5. Mix content of wells in the assay plate • 6. Spin plate for 1 min at 400 RPM • 7. Incubate assay plate for 60 min at 30° C. • 8. Quench reaction by adding 30 μl of SAH [1.25 mM] to each well (mix); final conc.=568 μM • 9. […]
Stimulation of rPRC2 methylase activity was determined in the presence of unmodified H3, H3K4me3, H3K9me3, H3K27me3, H3K36me3, H3K79me3, H4K20me3, and H1.4K26me3. […]

[2] = target: recombinant Polycomb Repressive Complex 2 (rPRC2) complex, including EZH2, EED, SUZ12, RBAP46, and RBAP48 subunits (human) (UniProt Q15910); test: cell-based or functional assay

Sequence of rPRC2 (Q15910 1-751 isoform Q15910-2): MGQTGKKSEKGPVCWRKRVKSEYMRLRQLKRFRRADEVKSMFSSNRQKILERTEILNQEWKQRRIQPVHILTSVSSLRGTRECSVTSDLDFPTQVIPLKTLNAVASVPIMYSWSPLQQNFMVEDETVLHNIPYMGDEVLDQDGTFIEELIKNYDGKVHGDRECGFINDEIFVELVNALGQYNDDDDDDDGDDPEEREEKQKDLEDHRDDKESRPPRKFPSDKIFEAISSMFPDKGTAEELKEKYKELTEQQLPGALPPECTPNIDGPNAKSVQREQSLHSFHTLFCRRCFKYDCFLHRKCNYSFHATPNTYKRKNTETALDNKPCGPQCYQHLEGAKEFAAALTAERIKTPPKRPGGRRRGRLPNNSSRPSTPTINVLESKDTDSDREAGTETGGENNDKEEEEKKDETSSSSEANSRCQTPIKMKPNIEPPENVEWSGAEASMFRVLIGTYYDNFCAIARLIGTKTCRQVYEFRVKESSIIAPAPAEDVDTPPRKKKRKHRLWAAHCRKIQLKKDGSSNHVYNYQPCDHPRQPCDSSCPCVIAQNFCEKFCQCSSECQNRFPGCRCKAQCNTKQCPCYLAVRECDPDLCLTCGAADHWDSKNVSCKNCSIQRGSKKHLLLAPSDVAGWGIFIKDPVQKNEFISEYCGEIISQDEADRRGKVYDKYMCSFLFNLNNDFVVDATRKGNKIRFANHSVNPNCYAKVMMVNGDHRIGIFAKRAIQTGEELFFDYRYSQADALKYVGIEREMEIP
Sequence of rPRC2 (O75530 whole entry): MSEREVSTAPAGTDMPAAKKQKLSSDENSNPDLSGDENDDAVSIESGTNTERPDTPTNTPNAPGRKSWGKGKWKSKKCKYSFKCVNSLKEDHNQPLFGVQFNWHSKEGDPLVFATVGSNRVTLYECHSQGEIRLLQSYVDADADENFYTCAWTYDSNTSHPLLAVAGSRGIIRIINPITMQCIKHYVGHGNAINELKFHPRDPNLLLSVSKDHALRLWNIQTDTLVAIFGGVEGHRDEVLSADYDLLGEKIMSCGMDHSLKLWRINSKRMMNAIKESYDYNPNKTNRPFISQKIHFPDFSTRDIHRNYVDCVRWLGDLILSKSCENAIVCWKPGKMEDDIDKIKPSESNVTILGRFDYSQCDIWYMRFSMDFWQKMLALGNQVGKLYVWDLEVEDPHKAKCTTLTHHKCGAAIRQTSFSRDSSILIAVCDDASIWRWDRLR
Sequence of rPRC2 (Q15022 whole entry partner): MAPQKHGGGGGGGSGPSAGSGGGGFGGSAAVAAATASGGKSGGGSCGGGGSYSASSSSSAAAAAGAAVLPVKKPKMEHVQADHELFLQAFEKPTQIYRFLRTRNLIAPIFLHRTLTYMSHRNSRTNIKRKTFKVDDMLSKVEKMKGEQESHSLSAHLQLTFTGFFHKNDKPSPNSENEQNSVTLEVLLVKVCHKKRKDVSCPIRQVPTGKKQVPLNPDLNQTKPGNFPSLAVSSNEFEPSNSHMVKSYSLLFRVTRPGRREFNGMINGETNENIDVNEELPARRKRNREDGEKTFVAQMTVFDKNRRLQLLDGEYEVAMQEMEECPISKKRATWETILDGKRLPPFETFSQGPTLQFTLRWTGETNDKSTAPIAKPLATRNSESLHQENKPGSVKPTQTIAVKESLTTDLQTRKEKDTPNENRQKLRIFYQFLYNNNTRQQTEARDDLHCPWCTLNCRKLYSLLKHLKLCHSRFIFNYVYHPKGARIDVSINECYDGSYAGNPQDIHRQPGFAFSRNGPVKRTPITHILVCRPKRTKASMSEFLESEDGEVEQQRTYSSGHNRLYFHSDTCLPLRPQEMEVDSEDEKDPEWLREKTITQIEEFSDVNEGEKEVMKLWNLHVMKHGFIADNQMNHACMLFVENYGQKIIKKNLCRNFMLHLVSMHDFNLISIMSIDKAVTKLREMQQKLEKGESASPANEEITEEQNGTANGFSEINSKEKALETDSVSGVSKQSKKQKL
Sequence of rPRC2 (Q16576 whole entry partner): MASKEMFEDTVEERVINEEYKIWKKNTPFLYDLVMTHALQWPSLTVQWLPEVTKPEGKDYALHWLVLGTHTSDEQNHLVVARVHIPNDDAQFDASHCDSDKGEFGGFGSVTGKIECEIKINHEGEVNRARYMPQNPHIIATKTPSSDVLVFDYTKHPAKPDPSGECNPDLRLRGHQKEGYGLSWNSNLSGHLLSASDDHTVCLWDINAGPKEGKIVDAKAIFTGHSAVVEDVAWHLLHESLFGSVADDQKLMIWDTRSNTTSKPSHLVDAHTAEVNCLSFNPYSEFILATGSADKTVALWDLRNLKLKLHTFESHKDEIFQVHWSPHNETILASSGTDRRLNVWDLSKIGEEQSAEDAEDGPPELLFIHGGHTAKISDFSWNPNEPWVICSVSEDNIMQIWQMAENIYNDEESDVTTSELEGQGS
Sequence of rPRC2 (Q09028 whole entry partner): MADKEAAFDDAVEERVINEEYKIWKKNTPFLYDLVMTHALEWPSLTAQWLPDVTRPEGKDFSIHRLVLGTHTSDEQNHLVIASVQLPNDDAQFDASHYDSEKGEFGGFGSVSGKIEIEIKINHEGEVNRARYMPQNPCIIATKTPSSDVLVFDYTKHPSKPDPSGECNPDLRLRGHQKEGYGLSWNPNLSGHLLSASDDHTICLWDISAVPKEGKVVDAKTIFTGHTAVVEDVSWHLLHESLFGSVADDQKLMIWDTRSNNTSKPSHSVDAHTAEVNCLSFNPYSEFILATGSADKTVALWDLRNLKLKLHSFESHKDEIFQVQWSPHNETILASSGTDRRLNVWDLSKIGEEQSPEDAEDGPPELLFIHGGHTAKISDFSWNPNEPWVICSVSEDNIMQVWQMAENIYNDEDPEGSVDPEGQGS

stimulation of rPRC2 methylase activity toward Bio/Avi-H3 [2] [fold] | Substance | other results
 | ARTKQTAR[Kme3]STGGKAPRKQLA(-Biotin) [H3K9me3] | stimulation of rPRC2 methylase activity toward oligonucleosomes (relative to unmodified H3) ([1]; enzyme 12.15 nM): over 9 fold
6 | Dimethylated H3K27 peptide | 
4 | Monomethylated H3K27 peptide | 
 | VKKKAR[Kme2]SAGAAKRKASG(-Biotin) [H1.4K26me3] | stimulation of rPRC2 methylase activity toward oligonucleosomes (in words) [1]: Stimulation
